Data taken from patent US9567347B2, “Use of small molecule inhibitors targeting the interaction between RAC GTPase and p67(phox)” (CHILDREN'S HOSPITAL MEDICAL CENTER, priority 2012, dated 2017).

Experiments:
[1] = tested on: fMLP-activated primary murine neutrophils; test: Nitroblue tetrazolium (NBT) assay; format: cell-based, mouse; conditions: 10 μM, FIG. 3C
Procedure: Primary neutrophils from mouse bone marrow were subjected to fMLP stimulation in the presence or absence of various chemicals for 5 min. Cells were stained for NBT activity as previously described in the incorporated materials of Filippi et al. (2004) to reveal relative ROS production.
To complement the DCFDA based FACS analysis and the luminol chemiluminescence method, nitroblue tetrazolium (NBT) assays were performed in fMLP-activated primary murine neutrophils (FIG. 3C).
The NBT assay was performed in primary murine neutrophils to measure ROS neutrophil production. […] Each compound was used at 10 μM.

Pak = test: immunoblot of phosphorylated Pak; format: cell-based, human; conditions: 18 hr treatment
Procedure: Whole-cell lysates were prepared by cell extraction using lysis buffer containing 20 mM Tris-HCl (pH 7.6), 100 mM NaCl, 10 mM MgCl2, 1% Triton X-100, 0.2% sodium deoxycholate, 1 mM phenylmethylsulfonyl fluoride, 10 μg/mL of leupeptin, 1 μg/mL of aprotinin, and 1 mM dithiothreitol for 30 min. Equal amounts of protein, as determined by Bradford assay, were resolved by SDS-PAGE. Specific proteins were detected by standard 9 immunoblotting procedures using the following primary antibodies: (Cell Signaling, 1:500 dilution) phospho-PAK1 (Ser144)/PAK2 (Ser141), (Sigma-Aldrich 1:500) β-Actin.
To analyze the biochemical specificity of these lead inhibitors on the effector pathways of active Rac1, undifferentiated HL-60 cells were treated with Phox-I1, Phox-I2, or NSC23766 for 18 hr. Immunoblot of the cell lysates was performed to probe the activity of Pak, a Rac effector other than p67^phox (FIG. 4B).

dHL-60 cells = test: DCFDA ROS assay after wash and recovery (affinity assay); format: cell-based, human; conditions: 2 hr treatment, recovery 4 hr or 2 hr
Procedure: (A) Apoptosis analysis by FACS of HL-60 cells treated with compound or vehicle control for 2 hours prior to 7-AAD and Annexin V staining. (B) HL-60 cells from A were harvested and lysates were immunoblotted for levels of pPAK, and actin was used as a control for loading. (C) F-actin reorganization in freshly isolated fMLP-stimulated primary murine neutrophils was analyzed. […] Cells were exposed to a 10 μM dose of Phox-I1, Phox-I2, and Analog 13, and 200 nM nocodazole. (D) The effect of Phox-I on NOX4 mediated ROS production was tested in primary murine neutrophils transfected with a NOX4 expressing plasmid. 10 μM Phox-I1 was applied to the cells for 30 min prior to ROS assay by luminol chemiluminescence in the presence of HRP. The fMLP-stimulated ROS activity in the presence or absence of 10 uM Phox-I1 was measured in parallel. (E) The antioxidant abilities of these lead compounds were tested by prestimulating dHL-60 cells with fMLP for 30 minutes prior to treatment with Phox-I1 or Phox-I2. Levels of superoxide were analyzed by DCFDA assay and FACS. NAC, apocyanin, DPI, and NSC23766 treated cells served as controls. (F) For affinity assay, DMSO-differentiated HL-60 cells were treated with standard effective dose of indicated compound for 2 hours, washed, and allowed to recover in normal media for 4 hours or 2 hours prior to fMLP stimulation and DCFDA ROS production assay by FACS analysis. (G) For stability assay, DMSO-differentiated HL-60 cells were treated with 20 μM dose of compound for the indicated time period prior to fMLP stimulation and DCFDA ROS production assay by FACS analysis.
Next, a stability experiment was performed to determine the duration of effectiveness of the compound in suppressing neutrophils. To analyze the relative affinities of these compounds for the p67^phox target in cells, DCFDA ROS production assays were performed in dHL-60 cells treated with compound for 2 hr followed by wash and recovery for 4 hr or 2 hr in normal media prior to ROS production analysis.

xanthine oxidase = target: T1, xanthine oxidase (Bos taurus, UniProt P80457); test: xanthine/xanthine oxidase assay; format: biochemical; conditions: 10 μM, 30 min at room temperature
T1 construct: purchased Sigma Aldrich
Procedure: Chemiluminescence was measured using GloMax®-96 Microplate Luminometer (Promega) (Tarpey et al., (2004) Am J Physiol Regul Integr Comp Physiol 286: R431-R444, hereby incorporated by reference in its entirety). The generation of […] by the xanthine/xanthine oxidase was performed in PBS supplemented with xanthine oxidase (0.004 U), HRP (0.005 U·mL^−1) and L012, following the protocol described in Wind et al., (2010) Br J Pharmacol. 161, 885-898, hereby incorporated by reference in its entirety. The reaction was started by the addition of xanthine (0.5 mM).
To test if the inhibitors are specific for the NOX2 enzyme, a xanthine/xanthine oxidase assay was performed. Specifically, vehicle, NAC (10 mM), […] or Phox-I2 (10 μM) was added to the assay, and incubated for 30 min at room temperature. The results were calculated by taking superoxide production in the absence of inhibitors as 100 and value obtained with NAC, Pghox-I1 or Phox-I2 was expressed as relative %. The data shown in FIG. 6 represent those from three separate experiments.

[2] = tested on: primary murine neutrophils; test: F-actin immunofluorescence, polarization upon fMLP stimulation; format: cell-based, mouse; conditions: 10 μM; untreated control about 80%
Procedure: Cells were pretreated with compound for 40 minutes prior to wash, and resuspended in HBSS with compound. Cells were allowed to adhere to fibronectin (Sigma Aldrich) coated glass coverslips (15 min) and then stimulated with 100 nM fMLP (3 min). Coverslips were then fixed with 3.7% paraformaldehyde (Sigma Aldrich) and then staining for […] was performed with rhodamine phalloidin per the manufacturer's instructions (Molecular Probes). Another method of addressing Rac-signaling specificity in neutrophils is by monitoring their ability to polarize actin to the leading edge upon fMLP stimulation. Neither Phox-I1, Phox-I2, nor an analog 13 (all at 10 μM), were able to block the Rac-mediated dynamic process of F-actin polarization to the leading edge of primary murine neutrophils as observed by F-actin immunofluorescence imaging (FIG. 4C, left panel). F-actin polarization was evident in about 80% of each treatment group of cells as in the control, untreated cells (FIG. 4C, right panel).

T1 sequence (P80457 2-1332 limits assumed): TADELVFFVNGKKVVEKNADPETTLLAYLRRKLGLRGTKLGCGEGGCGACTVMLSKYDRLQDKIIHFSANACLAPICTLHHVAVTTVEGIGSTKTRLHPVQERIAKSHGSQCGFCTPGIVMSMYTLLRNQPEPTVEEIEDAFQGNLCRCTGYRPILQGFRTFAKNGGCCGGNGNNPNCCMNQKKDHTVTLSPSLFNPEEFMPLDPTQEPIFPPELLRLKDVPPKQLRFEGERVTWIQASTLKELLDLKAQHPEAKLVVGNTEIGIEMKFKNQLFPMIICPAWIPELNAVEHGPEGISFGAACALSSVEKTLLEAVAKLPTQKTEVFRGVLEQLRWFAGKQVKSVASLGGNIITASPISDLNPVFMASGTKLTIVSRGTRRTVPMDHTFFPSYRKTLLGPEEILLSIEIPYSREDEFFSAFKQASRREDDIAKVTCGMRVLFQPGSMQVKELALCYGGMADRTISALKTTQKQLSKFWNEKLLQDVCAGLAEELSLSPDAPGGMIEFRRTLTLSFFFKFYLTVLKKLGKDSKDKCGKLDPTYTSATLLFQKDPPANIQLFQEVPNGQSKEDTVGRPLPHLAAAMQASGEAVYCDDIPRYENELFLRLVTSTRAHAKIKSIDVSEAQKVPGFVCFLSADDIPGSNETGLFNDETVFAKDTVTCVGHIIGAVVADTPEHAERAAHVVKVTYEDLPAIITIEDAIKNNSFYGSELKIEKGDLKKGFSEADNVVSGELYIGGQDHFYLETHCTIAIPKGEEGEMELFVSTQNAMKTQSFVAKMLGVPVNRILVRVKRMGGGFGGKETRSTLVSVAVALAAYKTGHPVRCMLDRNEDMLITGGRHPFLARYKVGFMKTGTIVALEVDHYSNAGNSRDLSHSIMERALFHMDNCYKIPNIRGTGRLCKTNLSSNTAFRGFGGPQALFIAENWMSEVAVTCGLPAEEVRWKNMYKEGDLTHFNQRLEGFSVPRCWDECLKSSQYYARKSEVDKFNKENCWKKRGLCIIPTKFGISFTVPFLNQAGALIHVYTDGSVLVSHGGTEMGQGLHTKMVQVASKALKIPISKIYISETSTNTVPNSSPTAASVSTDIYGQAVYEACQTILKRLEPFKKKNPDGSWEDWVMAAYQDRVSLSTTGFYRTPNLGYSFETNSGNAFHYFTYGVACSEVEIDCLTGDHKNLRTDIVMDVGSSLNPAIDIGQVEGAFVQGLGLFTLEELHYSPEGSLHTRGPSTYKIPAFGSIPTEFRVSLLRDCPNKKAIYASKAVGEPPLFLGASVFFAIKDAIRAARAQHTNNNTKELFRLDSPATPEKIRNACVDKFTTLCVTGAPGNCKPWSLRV

Row | xanthine oxidase-mediated ROS production (xanthine oxidase) | Compound | superoxide production (NBT) [1] | phosphorylated Pak levels (Pak) | ROS inhibition after wash (dHL-60 cells) | cells with F-actin polarization [2]
1 | does not affect | COc1ccc2c(c1)C1C=C(c3ccccc3)NN1C(c1cccc([N+](=O)[O-])c1)O2 (stereo not shown) [Phox-I1] | significant blockade of superoxide production | not | still evident | about 80%
2 | does not affect | O=[N+]([O-])c1cccc(C2Nc3ccc([N+](=O)[O-])cc3C3C=CCC32)c1 (stereo not shown) [Phox-I2] | heightened | not | did not display effective ROS inhibition | about 80%
